Source: PubChem BioAssay AID1745844 (Carcinogenic Potency Database (CPDB), 2022)

Test system: rodent lifetime carcinogenesis bioassay, tumor incidence TD50
Assay: chronic cancer bioassays in animals – CPDB, compiled studies (AID 1745844)
Conditions: in feed

OCC(CO)(CBr)CBr
TD50 (mouse, strain B6C3F1, females, site: Harderian gland + lung + subcutaneous tissue, lesion: adenoma + adenoma, bilateral + carcinoma + alveolar/bronchiolar adenoma + alveolar/bronchiolar carcinoma + fibrosarcoma + sarcoma, dosed 104 weeks, study length 106 weeks): 67.8 mg/kg/day | TD50 (mouse, strain B6C3F1, females, site: Harderian gland, lesion: adenoma + adenoma, bilateral + carcinoma, dosed 104 weeks, study length 106 weeks): 122 mg/kg/day | TD50 (mouse, strain B6C3F1, females, site: Harderian gland, lesion: adenoma + adenoma, bilateral, dosed 104 weeks, study length 106 weeks): 187 mg/kg/day | TD50 (mouse, strain B6C3F1, females, site: Harderian gland, lesion: carcinoma, dosed 104 weeks, study length 106 weeks): 323 mg/kg/day | TD50 (mouse, strain B6C3F1, females, site: all sites, lesion: hemangioma + hemangiosarcoma, dosed 104 weeks, study length 106 weeks): 846 mg/kg/day | TD50 (mouse, strain B6C3F1, females, site: all sites, lesion: hemangiosarcoma, dosed 104 weeks, study length 106 weeks): 1480 mg/kg/day | TD50 (mouse, strain B6C3F1, females, site: any site (literature study), lesion: several types, types named in the paper, dosed 104 weeks, study length 106 weeks): 57.3 mg/kg/day | TD50 (mouse, strain B6C3F1, females, site: forestomach, lesion: squamous-cell papilloma, dosed 104 weeks, study length 106 weeks): 446 mg/kg/day | TD50 (mouse, strain B6C3F1, females, site: liver, lesion: hepatocellular adenoma + hepatoblastoma + hepatocellular carcinoma, dosed 104 weeks, study length 106 weeks): 267 mg/kg/day | TD50 (mouse, strain B6C3F1, females, site: liver, lesion: hepatocellular adenoma, dosed 104 weeks, study length 106 weeks): 301 mg/kg/day | TD50 (mouse, strain B6C3F1, females, site: lung, lesion: alveolar/bronchiolar adenoma + alveolar/bronchiolar carcinoma, dosed 104 weeks, study length 106 weeks): 127 mg/kg/day | TD50 (mouse, strain B6C3F1, females, site: lung, lesion: alveolar/bronchiolar adenoma, dosed 104 weeks, study length 106 weeks): 171 mg/kg/day | TD50 (mouse, strain B6C3F1, females, site: lung, lesion: alveolar/bronchiolar carcinoma, dosed 104 weeks, study length 106 weeks): 398 mg/kg/day | TD50 (mouse, strain B6C3F1, females, site: mammary gland, lesion: carcinoma, dosed 104 weeks, study length 106 weeks): 1480 mg/kg/day | TD50 (mouse, strain B6C3F1, females, site: subcutaneous tissue, lesion: fibrosarcoma + sarcoma, dosed 104 weeks, study length 106 weeks): 322 mg/kg/day | TD50 (mouse, strain B6C3F1, females, site: subcutaneous tissue, lesion: sarcoma, dosed 104 weeks, study length 106 weeks): 350 mg/kg/day | TD50 (mouse, strain B6C3F1, males, site: Harderian gland + kidney + lung, lesion: adenoma + adenoma, bilateral + carcinoma + carcinoma, bilateral + tubule adenoma + alveolar/bronchiolar adenoma + alveolar/bronchiol, dosed 104 weeks, study length 105 weeks): 106 mg/kg/day | TD50 (mouse, strain B6C3F1, males, site: Harderian gland, lesion: adenoma + adenoma, bilateral + carcinoma + carcinoma, bilateral, dosed 104 weeks, study length 105 weeks): 155 mg/kg/day | TD50 (mouse, strain B6C3F1, males, site: Harderian gland, lesion: adenoma + adenoma, bilateral, dosed 104 weeks, study length 105 weeks): 191 mg/kg/day | TD50 (mouse, strain B6C3F1, males, site: any site (literature study), lesion: several types, types named in the paper, dosed 104 weeks, study length 105 weeks): 126 mg/kg/day | TD50 (mouse, strain B6C3F1, males, site: forestomach, lesion: squamous-cell carcinoma + squamous-cell papilloma, dosed 104 weeks, study length 105 weeks): 581 mg/kg/day | TD50 (mouse, strain B6C3F1, males, site: kidney, lesion: tubule adenoma, dosed 104 weeks, study length 105 weeks): 1190 mg/kg/day | TD50 (mouse, strain B6C3F1, males, site: liver, lesion: hepatocellular adenoma + hepatoblastoma + hepatocellular carcinoma, dosed 104 weeks, study length 105 weeks): 2480 mg/kg/day | TD50 (mouse, strain B6C3F1, males, site: lung, lesion: alveolar/bronchiolar adenoma + alveolar/bronchiolar carcinoma, dosed 104 weeks, study length 105 weeks): 218 mg/kg/day | TD50 (mouse, strain B6C3F1, males, site: lung, lesion: alveolar/bronchiolar adenoma, dosed 104 weeks, study length 105 weeks): 270 mg/kg/day | TD50 (mouse, strain B6C3F1, males, site: lung, lesion: alveolar/bronchiolar carcinoma, dosed 104 weeks, study length 105 weeks): 334 mg/kg/day | TD50 (mouse, strain B6C3F1, males, site: thyroid gland, lesion: follicular-cell adenoma, dosed 104 weeks, study length 105 weeks): 835 mg/kg/day | TD50 (rat, strain Fischer 344, females, site: all sites, lesion: mononuclear-cell leukemia, dosed 104 weeks, study length 105 weeks): 406 mg/kg/day | TD50 (rat, strain Fischer 344, females, site: any site (literature study), lesion: several types, types named in the paper, dosed 104 weeks, study length 105 weeks): 94.4 mg/kg/day | TD50 (rat, strain Fischer 344, females, site: esophagus + mammary gland + palate + thyroid gland + tongue, lesion: squamous-cell papilloma + adenoma + carcinoma + fibroadenoma + squamous-cell carcinoma + follicular-cell adenoma + follicular-cell c, dosed 104 weeks, study length 105 weeks): 84.3 mg/kg/day | TD50 (rat, strain Fischer 344, females, site: esophagus, lesion: squamous-cell papilloma, dosed 104 weeks, study length 105 weeks): 1410 mg/kg/day | TD50 (rat, strain Fischer 344, females, site: mammary gland, lesion: adenoma + carcinoma + fibroadenoma, dosed 104 weeks, study length 105 weeks): 83.8 mg/kg/day | TD50 (rat, strain Fischer 344, females, site: mammary gland, lesion: adenoma + fibroadenoma, dosed 104 weeks, study length 105 weeks): 83 mg/kg/day | TD50 (rat, strain Fischer 344, females, site: mammary gland, lesion: fibroadenoma, dosed 104 weeks, study length 105 weeks): 83 mg/kg/day | TD50 (rat, strain Fischer 344, females, site: palate + tongue, lesion: squamous-cell carcinoma + squamous-cell papilloma, dosed 104 weeks, study length 105 weeks): 1010 mg/kg/day | TD50 (rat, strain Fischer 344, females, site: palate + tongue, lesion: squamous-cell papilloma, dosed 104 weeks, study length 105 weeks): 1240 mg/kg/day | TD50 (rat, strain Fischer 344, females, site: pituitary gland, lesion: pars distalis adenoma, dosed 104 weeks, study length 105 weeks): 300 mg/kg/day | TD50 (rat, strain Fischer 344, females, site: subcutaneous tissue, lesion: fibrosarcoma + fibroma + sarcoma, dosed 104 weeks, study length 105 weeks): 1370 mg/kg/day | TD50 (rat, strain Fischer 344, females, site: subcutaneous tissue, lesion: fibrosarcoma + sarcoma, dosed 104 weeks, study length 105 weeks): 4200 mg/kg/day | TD50 (rat, strain Fischer 344, females, site: thyroid gland, lesion: follicular-cell adenoma + follicular-cell carcinoma, dosed 104 weeks, study length 105 weeks): 1670 mg/kg/day | TD50 (rat, strain Fischer 344, females, site: thyroid gland, lesion: follicular-cell adenoma, dosed 104 weeks, study length 105 weeks): 2160 mg/kg/day | TD50 (rat, strain Fischer 344, females, site: tongue, lesion: squamous-cell carcinoma + squamous-cell papilloma, dosed 104 weeks, study length 105 weeks): 1260 mg/kg/day | TD50 (rat, strain Fischer 344, females, site: tongue, lesion: squamous-cell papilloma, dosed 104 weeks, study length 105 weeks): 1360 mg/kg/day | TD50 (rat, strain Fischer 344, females, site: uterus, lesion: endometrial stromal polyp + endometrial stromal sarcoma, dosed 104 weeks, study length 105 weeks): 859 mg/kg/day | TD50 (rat, strain Fischer 344, females, site: uterus, lesion: endometrial stromal polyp, dosed 104 weeks, study length 105 weeks): 904 mg/kg/day | TD50 (rat, strain Fischer 344, males, site: Zymbal's gland, lesion: adenoma + carcinoma + carcinoma, bilateral, dosed 12 weeks, study length 103 weeks): 138 mg/kg/day | TD50 (rat, strain Fischer 344, males, site: Zymbal's gland, lesion: adenoma + carcinoma, dosed 104 weeks, study length 105 weeks): 1600 mg/kg/day | TD50 (rat, strain Fischer 344, males, site: Zymbal's gland, lesion: adenoma, dosed 104 weeks, study length 105 weeks): 1950 mg/kg/day | TD50 (rat, strain Fischer 344, males, site: Zymbal's gland, lesion: carcinoma + carcinoma, bilateral, dosed 12 weeks, study length 103 weeks): 138 mg/kg/day | TD50 (rat, strain Fischer 344, males, site: all sites + colon + esophagus + gingiva + jejunum + lung + mammary gland + palate + skin + subcutaneous tissue + thyroid gland + tongue + urinar, lesion: mononuclear-cell leukemia + mesothelioma, malignant + adenomatous polyp + squamous-cell papilloma + squamous-cell carcinoma + carc, dosed 104 weeks, study length 105 weeks): 68.1 mg/kg/day | TD50 (rat, strain Fischer 344, males, site: all sites, lesion: mesothelioma, malignant, dosed 12 weeks, study length 103 weeks): 28.4 mg/kg/day | TD50 (rat, strain Fischer 344, males, site: all sites, lesion: mesothelioma, malignant, dosed 104 weeks, study length 105 weeks): 335 mg/kg/day | TD50 (rat, strain Fischer 344, males, site: all sites, lesion: mononuclear-cell leukemia, dosed 12 weeks, study length 103 weeks): 22.5 mg/kg/day | TD50 (rat, strain Fischer 344, males, site: all sites, lesion: mononuclear-cell leukemia, dosed 104 weeks, study length 105 weeks): 95.8 mg/kg/day | TD50 (rat, strain Fischer 344, males, site: any site (literature study), lesion: several types, types named in the paper, dosed 12 weeks, study length 103 weeks): 6.25 mg/kg/day | TD50 (rat, strain Fischer 344, males, site: any site (literature study), lesion: several types, types named in the paper, dosed 104 weeks, study length 105 weeks): 63.8 mg/kg/day | TD50 (rat, strain Fischer 344, males, site: colon + rectum, lesion: adenomatous polyp + carcinoma, dosed 12 weeks, study length 103 weeks): 146 mg/kg/day | TD50 (rat, strain Fischer 344, males, site: colon + rectum, lesion: adenomatous polyp, dosed 12 weeks, study length 103 weeks): 152 mg/kg/day | TD50 (rat, strain Fischer 344, males, site: colon, lesion: adenomatous polyp, dosed 104 weeks, study length 105 weeks): 997 mg/kg/day | TD50 (rat, strain Fischer 344, males, site: esophagus, lesion: squamous-cell papilloma, dosed 104 weeks, study length 105 weeks): 1390 mg/kg/day | TD50 (rat, strain Fischer 344, males, site: forestomach, lesion: squamous-cell papilloma, dosed 12 weeks, study length 103 weeks): 217 mg/kg/day | TD50 (rat, strain Fischer 344, males, site: forestomach, lesion: squamous-cell papilloma, dosed 104 weeks, study length 105 weeks): 16000 mg/kg/day | TD50 (rat, strain Fischer 344, males, site: gingiva + palate + tongue, lesion: squamous-cell carcinoma + squamous-cell papilloma, dosed 104 weeks, study length 105 weeks): 285 mg/kg/day | TD50 (rat, strain Fischer 344, males, site: ileum + jejunum, lesion: carcinoma + adenomatous polyp, dosed 12 weeks, study length 103 weeks): 363 mg/kg/day | TD50 (rat, strain Fischer 344, males, site: ileum + jejunum, lesion: carcinoma, dosed 12 weeks, study length 103 weeks): 445 mg/kg/day | TD50 (rat, strain Fischer 344, males, site: jejunum, lesion: carcinoma, dosed 104 weeks, study length 105 weeks): 5660 mg/kg/day
